The subject of data set [1] is Sprague-Dawley rats. Description: Measuring the thickness of the soles of the hind feet after injection (edema, erythema). It is filed as in vivo. How it is done:
0.1 ml of the injectable compositions of the above Table 1, Lipobean (purchased from Ami Pharm Co., Ltd.; positive control) or 2.5% sodium deoxycholate (hereinafter, “DC”; saline solution was used as a solvent) were injected into the soles of the hind feet of 6 week-old, male Sprague-Dawley rats (weight: 170-200 g), respectively. The thickness of the soles was measured by using calipers at 1, 2, 3, and 4 hours after injection, while test performers were not aware of the order or the purpose of tests (i.e. blind study).

In a further data set the test system is adipocytes. Description: Observation of adipocytes in abdominal subcutaneous fats (H&E, optical microscope). The format is in vivo, Albino C57BL/6 mice. The settings on record: 0.2 ml s.c. into abdomen of obese mice, FIG. 9. On the procedure: (§1) Albino C57BL/6 mice (4 weeks old) were fed with high fat diet (Research diet, 60% kcal lipid) to induce a high degree of obesity. Then, after 24 and 48 hours, 0.2 ml of saline solution (negative control group), injection compositions of Table 1, Lipobean, 2.5% DC were injected subcutaneously into the abdomen of the mice, respectively. Eight (8) days after the administration was completed, the mice were sacrificed.
The abdomen of the sacrificed mice was incised, followed by rapid extraction of subcutaneous fats and their fixation in 4% formaldehyde solution. After fixation, washing & dehydrating were conducted and treated with paraffin solution to prepare paraffin blocks. Then, those paraffin blocks were thin-sliced in the thickness of 4 μm which were then dyed with hematoxylin & eosin for an optical microscopic observation.
The size of adipocytes in the saline control group and the PC injection-administered group were measured.

Another data set concerns Prostaglandin E2 (PGE2). The data set is described as follows: PGE2 Assay on hind feet tissue samples. It is filed as in vivo, mice. The settings on record: FIG. 7. On the procedure: Prostaglandin E2 (PGE2) in the hind feet tissue samples of test animals in phosphatidylcholine (PC)-containing injection-administered test groups and sodium deoxycholate (DC)-administered group in various concentrations (PC 2.5%, PC 5%, DC 2.5%, PC 5%+DC 2.5%) was measured with PGE2 Assay (R&D System Inc., Minneapolis, USA). During cultivation, PGE2s in the hind feet tissue samples bound competitively with horse radish peroxidase (HRP)-labeled PGE2 to their mouse monoclonal antibodies. Unbound materials were removed by using washing buffer, while substrate solution was added to each well and left at room temperature with sunlight blocked. Then, stop solution was added, followed by measuring absorption value at 450 nm.

Data set [2] has as its system Myeloperoxidase (MPO) activity. The data set is described as follows: MPO Activity Colorimetric Assay on hind feet tissue samples. It is filed as in vivo, mice. The conditions noted are these: FIG. 4; comparison of groups. On the procedure: Myeloperoxidase (MPO) activity was measured by using MPO Activity Colorimetric Assay Kit (BioVision, USA). The tissue samples of the hind feet of test animals in phosphatidylcholine (PC)-containing injection-administered test groups and sodium deoxycholate (DC)-administered group in various concentrations (PC 2.5%, PC 5%, DC 2.5%, PC 5%+DC 2.5%) were mixed in 4 times MPO assay buffer and centrifuged at 12,000 rpm for 10 minutes, followed by diluting each tissue sample with 25 μl of MPO assay buffer, respectively. The diluted samples were placed into standard, background sample of 96-well plate, while dividing reaction mix and background into their corresponding wells and cultivating at 25° C. for 120 minutes. Then, stop mix was added and left for 10 minutes. Subsequently, TNB reagent was added to equalize the total amount of each well to 150 μl, followed by sun blocking with aluminum foils and 10 minutes later measuring absorption value at 412 nm.

A further data set deals with Albino C57BL/6 mice. Description: Determination of tissue necrosis through visual inspection after subcutaneous abdominal injection. It is filed as in vivo. The settings on record: 8 days after administration; for Tissue necrosis at the injected area (visual inspection): 0.2 ml s.c. into abdomen of obese mice, FIG. 8. How it is done:
as §1
Visual inspection was conducted on the subcutaneously injected areas of the sacrificed mice.

For data set [3], the system named is Sprague-Dawley rats. Description: Histological test of the soles (hematoxylin eosin). It is filed as in vivo. The settings on record: 4 hours after administration, FIG. 3. The source says: Four (4) hours after the above described administration, rats were sacrificed of which soles were removed and their skins were incised and fixated in 10% formalin solution. Then, they were dyed in hematoxylin eosin solution to observe their morphological changes.

For the substance sodium deoxycholate [DC 2.5%], the “Measurement of the thickness of the feet” value is 0.324 in the data set with Sprague-Dawley rats [1] (0 h, 0.1 ml injected into soles of hind feet, calipers); 0.720 in the data set on Sprague-Dawley rats [1] (1 h after injection, 0.1 ml into soles of hind feet); 0.706 with Sprague-Dawley rats [1] (2 h after injection, 0.1 ml into soles of hind feet); 0.682 in the data set with Sprague-Dawley rats [1] (3 h after injection, 0.1 ml into soles of hind feet); 0.625 with Sprague-Dawley rats [1] (4 h after injection, 0.1 ml into soles of hind feet). The “Inflammation in abdominal subcutaneous fat (histology)” value in the data set with adipocytes is listed as “greater degree of inflammation than other groups”. Moreover, the “Lipolysis in abdominal subcutaneous fat (histology)” value in the data set on adipocytes is on record as “Almost no lipolysis effect”. Besides, the “Level of PGE2 relative to phosphatidylcholine (PC)-administered test groups” value in the data set with Prostaglandin E2 (PGE2) was at least 2 times. The “MPO activity in hind feet tissue” value in data set [2] is listed as “overall higher MPO activity”. Also, the “Tissue necrosis at the injected area (visual inspection)” value is “severe necrosis with perforation in the skin” in the data set on Albino C57BL/6 mice (listed as 2.5% DC); “severe tissue necrosis with perforation and fibrosis” with Albino C57BL/6 mice (listed as DC). Further, the “Fibrosis (autopsy)” value in the data set with Albino C57BL/6 mice (0.2 ml s.c. into abdomen) is “fibrosis was spread to the surrounding tissues”. For the same substance, in the data set with Sprague-Dawley rats [3], the “Edema and neutrophils in sole tissue (histology)” value was “both edema and neutrophils”.

These data come from patent US9474765B2, “Composition for lipolysis, containing phosphatidylcholine, and preparation method therefor” (AMI Pharm Co., Ltd., priority 2013, dated 2016).
